From patent US8366962B2, “Polymerizable liquid crystal compounds having oxiranyl group, polymerizable liquid crystal compositions and polymers” (JNC Corporation, priority 2009, dated 2013)

Test: Solubility in PGMEA/MMP: deposition of crystals when the solution is allowed to stand at room temperature
Assay type: physicochemical
Conditions: 70/30 by weight mixture with compound (M1-19-1), 30% by weight solution in PGMEA/MMP=9/1 by volume
Description: Incidentally, PGMEA and MMP stand for propylene glycol […] ether acetate and methyl 3-methoxypropionate, respectively.

time allowed to stand without deposition of crystals: more than 3 days
SMILES: Cc1cc(OC(=O)c2ccc(OCCCCOCC3(C)CO3)cc2)ccc1OC(=O)c1ccc(OCCCCOCC2(C)CO2)cc1 (stereo not shown) [Compound (1-1-14)]
